Source: US3939144A, “Manufacture of N-(benzenesulfonyl)-5-O-desosaminyl-erythromycilamine derivatives” (Pliva, Pharmaceutical and Chemical Works, priority 1974, dated 1976)
In brackets after ≈: the same amount, converted by molar mass.

Key:
Type in all cases: cell-based
Details in all cases: compound alone
E.coli 8141 = test: Preliminary bacteriological tests, MIC, E.coli 8141
Strept.haem. = test: Preliminary bacteriological tests, MIC, Strept.haem.
E.coli 7920 = test: Preliminary bacteriological tests, MIC, E.coli 7920

Row | MIC (E.coli 8141) [µg/mL] | MIC (Strept.haem.) [µg/mL] | MIC (E.coli 7920) [µg/mL] | Compound
1 | 500 (≈ 628 µM) | 62.2 (≈ 78.2 µM) | 250 (≈ 314 µM) | CCC1OC(=O)C(C)C(O)C(C)C(OC2OC(C)CC(N(C)C)C2O)C(C)(O)CC(C)C(NS(=O)(=O)c2ccc(Br)cc2)C(C)C(O)C1(C)O (stereo not drawn) [DEASBr, N-(4-bromo-benzenesulfonyl)-5 -O-desosaminyl-erythromycilamine]
2 | 250 (≈ 333 µM) | 125 (≈ 166 µM) | 250 (≈ 333 µM) | CCC1OC(=O)C(C)C(O)C(C)C(OC2OC(C)CC(N(C)C)C2O)C(C)(O)CC(C)C(NS(=O)(=O)c2ccc(Cl)cc2)C(C)C(O)C1(C)O (stereo not drawn) [DEASCl, N-(4-chloro-benzenesulfonyl)-5 -O-desosaminyl-erythromycilamine]
3 | 125 (≈ 171 µM) | 62.2 (≈ 85 µM) | 125 (≈ 171 µM) | CCC1OC(=O)C(C)C(O)C(C)C(OC2OC(C)CC(N(C)C)C2O)C(C)(O)CC(C)C(NS(=O)(=O)c2ccc(N)cc2)C(C)C(O)C1(C)O (stereo not drawn) [DEASNH2, N-(4-amino-benzenesulfonyl)-5-0-desosaminyl-erythromycilamine]
4 | 125 (≈ 171 µM) | 62.2 (≈ 85.1 µM) | 125 (≈ 171 µM) | CCC1OC(=O)C(C)C(O)C(C)C(OC2OC(C)CC(N(C)C)C2O)C(C)(O)CC(C)C(NS(=O)(=O)c2ccc(C)cc2)C(C)C(O)C1(C)O (stereo not drawn) [DEAST, N-(4-methyl-benzenesulfonyl)-5 -O-desosaminyl-erythromycilamine]
